According to US20240099989A1, “AGENT FOR PREVENTING OR IMPROVING PERIPHERAL NEUROPATHY” (KINKI UNIVERSITY, priority 2021, published 2024):
Entries after “also recorded” stand apart in the source; their conditions may differ.

Tests used:
[1] = tested on: Diabetic Peripheral Neuropathy in a Mouse Induced by Streptozotocin; assay: Von Frey test (0.16 g filament), diabetic peripheral neuropathy induced by streptozotocin; assay type: in vivo, C57BL/6J mice; conditions: group receiving streptozotocin only (200 mg/kg, Day 0 only), vs control group
Method: On Day 8 of acclimation, the mice in the group receiving streptozotocin and the group receiving streptozotocin+1 mg/kg xylitol were administered with streptozotocin at a dose of 200 mg/kg. A massive dose of streptozotocin destroys pancreatic cells in the mice. As a result, insulin is no longer secreted, and thus, diabetes can be developed in the mice. This day was designated as the first day of the administration (Day 0). Note that streptozotocin was administered only on the first day of administration. […]
(§1) Six to seven-week-old male C57BL/6J mice were used for the tests as with Example 7. All the mice were acclimated for seven days after arrival. Then, the mice were grouped into the following four groups: a control group, a group receiving streptozotocin, a group receiving 1 mg/kg xylitol, and a group receiving streptozotocin+1 mg/kg xylitol. Each group consisted of nine mice.
(§2) The mice in the group receiving 1 mg/kg xylitol were orally administered with xylitol at a dose of 1 mg/kg daily from Day 0. The mice in the group receiving streptozotocin+1 mg/kg xylitol were orally administered with xylitol at a dose of 1 mg/kg daily from Day 21 of administration.
The mice in the four groups described in (1) of the present example (Example 8) were placed in a cage, and the avoidance response frequency (score) was measured by pressing a filament with a bending force of 0.16 g against the back of the hind paw. […]
(§3) On Day 8 of acclimation, the mice in the group receiving streptozotocin and the group receiving streptozotocin+5 mg/kg D-threitol were administered with streptozotocin at a dose of 200 mg/kg. A massive dose of streptozotocin destroys pancreatic cells in the mice. As a result, insulin is no longer secreted, and thus, diabetes can be developed in the mice. This day was designated as the first day of the administration (Day 0). Note that streptozotocin was administered only on the first day of administration.
(§4) The mice in the group receiving 5 mg/kg D-threitol and the group receiving streptozotocin+5 mg/kg D-threitol were orally administered with D-threitol at a dose of 5 mg/kg daily from Day 0. […]
The mice in the group receiving 5 mg/kg D-threitol were orally administered with D-threitol at a dose of 5 mg/kg daily from Day 0. […]
The mice in the four groups described in (1) of the present example (Example 10) were placed in a cage, and the avoidance response frequency (score) was measured by pressing a filament with a bending force of 0.16 g against the back of the hind paw. […]
The mice in the four groups described in (1) of the present example (Example 11) were placed in a cage, and the avoidance response frequency (score) was measured by pressing a filament with a bending force of 0.16 g against the back of the hind paw. […]

[2] = tested on: Diabetic Peripheral Neuropathy in a Mouse Induced by Streptozotocin; assay: Cold plate test (4° C.), diabetic peripheral neuropathy induced by streptozotocin; assay type: in vivo, C57BL/6J mice; conditions: group receiving streptozotocin only (200 mg/kg, Day 0 only), vs control group
Method: as §1, §2
A cold plate test was performed to examine the effect due to xylitol on paresthesia that is caused by a low temperature stimulus. The mice in the four groups described in (1) of the present example (Example 8) were placed on a cold plate set at 4° C., and withdrawal response time (latent time) was measured. It is presumed that a shorter withdrawal response time (latent time) reflects a greater degree of shunning the low temperature stimulus by the cold plate. […]
as §3, §4
The mice in the group receiving 5 mg/kg D-threitol were orally administered with D-threitol at a dose of 5 mg/kg daily from Day 0. The mice in the group receiving streptozotocin+5 mg/kg D-threitol were orally administered with D-threitol at a dose of 5 mg/kg daily from Day 21 of administration.
(§5) A cold plate test was performed to examine the effect of D-threitol on paresthesia that is caused by a low temperature stimulus. The mice in the four groups described in (1) of the present example (Example 10) were placed on a cold plate set at 4° C., and withdrawal response time (latent time) was measured. […]
as §5, with “L-talitol” for “D-threitol”, “11)” for “10)”

[3] = tested on: Peripheral Neuropathy in a Mouse Caused by Oxaliplatin; assay: Cold plate test (10° C.), peripheral neuropathy caused by oxaliplatin; assay type: in vivo, Balb/c mice; conditions: group receiving 6 mg/kg oxaliplatin only (i.p. Day 0, 7, 14), vs control group
Method: The preventive action of xylitol on hyperesthesia that occurs when an anticancer drug, oxaliplatin, was administered was examined. […] Xylitol was orally administered to a mouse simultaneously with the administration of oxaliplatin, and the following tests (cold plate test and von Frey test) were performed. Oxaliplatin is an anticancer drug classified as a platinum-containing drug. In all of the examples described below, a dosage (administered amount) (mg/kg) refers to the weight of the administered substance per kg body weight of the mouse.
Six to seven-week-old female Balb/c mice were used for the tests. All the mice were acclimated for seven days after arrival. Then, the mice were grouped into the following four groups: a control group, a group receiving oxaliplatin, and two groups receiving oxaliplatin and two different doses of xylitol (groups receiving oxaliplatin+xylitol). Each group consisted of nine mice.
(§6) On Day 8 of acclimation, the mice in the group receiving oxaliplatin and the groups receiving oxaliplatin+xylitol were intraperitoneally administered with oxaliplatin at a dose of 6 mg/kg. This day was designated as Day 0 of administration. Thereafter, these mice were intraperitoneally administered with oxaliplatin at a daily dose of 6 mg/kg on Day 7 and Day 14.
The mice in a first group receiving oxaliplatin and xylitol were orally administered with xylitol at a dose of 1 mg/kg daily from Day 0. The mice in a second group receiving oxaliplatin and xylitol were orally administered with xylitol at a dose of 5 mg/kg daily from Day 0.
(§7) A cold plate test was performed to examine the effect of xylitol on paresthesia that is caused by a low temperature stimulus. The mice in the four groups described in (1) of the present example (Example 1) were placed on a cold plate set at 10° C., and withdrawal response time (latent time) was measured. It is presumed that a shorter latent time reflects a greater degree of shunning the low temperature stimulus by the cold plate.
Six to seven-week-old female Balb/c mice were used for the tests as with Example 1. All the mice were acclimated for seven days after arrival. Then, the mice were grouped into the following five groups: a control group, a group receiving only oxaliplatin, and three groups receiving oxaliplatin and three different doses of xylitol. Each group consisted of seven mice.
(§8) On Day 8 of acclimation, the mice in the groups other than the control group were intraperitoneally administered with oxaliplatin at a dose of 6 mg/kg. This day was designated as the first day of the administration (Day 0). Thereafter, these mice were intraperitoneally administered with oxaliplatin at the same dose on Day 7 and Day 14 for a total of 3 doses.
The mice in a first group receiving oxaliplatin+xylitol were orally administered with xylitol at a dose of 5 mg/kg daily from Day 6 of administration. The mice in a second group receiving oxaliplatin+xylitol were orally administered with xylitol at a dose of 25 mg/kg daily from Day 6 of administration. The mice in a third group receiving oxaliplatin+xylitol were orally administered with xylitol at a dose of 100 mg/kg daily from Day 6 of administration. In this context, “Day 6 of administration” means that the number of days after administration is 6. The same applies hereinafter.
as §7, with “A” for “A cold plate”, “performed on the mice in the five groups described in (1) of the present example (Example 2)” for “performed”, “respective” for “the four”, “groups” for “groups described in (1) of the present example (Example 1)”
Six to seven-week-old female Balb/c mice were used for the tests as with Example 1. All the mice were acclimated for seven days after arrival. […]

[4] = tested on: Peripheral Neuropathy in a Mouse Caused by Oxaliplatin; assay: Von Frey test (0.16 g filament), peripheral neuropathy caused by oxaliplatin; assay type: in vivo, Balb/c mice; conditions: group receiving 6 mg/kg oxaliplatin only (i.p. Day 0, 7, 14), vs control group
Source text: (§9) Six to seven-week-old female Balb/c mice were used for the tests as with Example 1. All the mice were acclimated for seven days after arrival. Then, the mice were grouped into the following four groups: a control group, a group receiving oxaliplatin, a group receiving D-threitol, and a group receiving oxaliplatin and D-threitol (a group receiving oxaliplatin+D-threitol). Each group consisted of five mice.
as §6, with “group” for “groups”, “oxaliplatin+D-threitol” for “oxaliplatin+xylitol”, “the first day” for “Day 0”, “the administration (Day 0).” for “administration.”
The mice in the group receiving D-threitol and the group receiving oxaliplatin+D-threitol were orally administered with D-threitol at a dose of 5 mg/kg daily from Day 0.
The mice in the four groups described in (1) of the present example (Example 3) were placed in a cage, and the avoidance response frequency (score) was measured by pressing a filament with a bending force of 0.16 g against the back of the hind paw.
as §8, with “group receiving oxaliplatin and” for “groups other than”, “the” for “the control”, “group receiving oxaliplatin+D-threitol” for “group”
The mice in the group receiving 100 mg/kg D-threitol were orally administered with D-threitol at a dose of 100 mg/kg daily from Day 0. The mice in the group receiving oxaliplatin+100 mg/kg D-threitol were orally administered with D-threitol at a dose of 100 mg/kg daily from Day 6 of administration.
For the mice in the four groups described in (1) of the present example (Example 4), the avoidance response frequency (score) was measured by pressing a filament with a bending force of 0.16 g against the back of the hind paw.
as §9, with “L-talitol,” for “D-threitol,”, “L-talitol” for “D-threitol”, “oxaliplatin+L-talitol).” for “oxaliplatin+D-threitol).”, “mice. […]” for “mice.”
The mice in the four groups described in (1) of the present example (Example 5) were placed in a cage, and the avoidance response frequency (score) was measured by pressing a filament with a bending force of 0.16 g against the back of the hind paw. […]

Row | Structure (SMILES) | avoidance response score [1] | withdrawal response time (latent time) [2] | withdrawal response time (latent time) [3] | avoidance response score [4]
1 | CN(N=O)C(=O)N[C@H]1C(O)O[C@H](CO)[C@@H](O)[C@@H]1O (mixture of isomers) [streptozotocin, reference compound] | increased from Day 7 | reduced from Day 7 |  | 
2 | O=C1[O][Pt]2([NH][C@@H]3CCCC[C@H]3[NH]2)[O]C1=O [oxaliplatin, reference compound] |  |  | reduced from Day 3 to Day 6 of the test; also recorded: uniform reduction in the withdrawal response time | remarkable increase in the avoidance response score
